According to patent US7495108B2, “Imidazoline derivatives having CB1-antagonistic activity” (Solvay Pharmaceuticals, B.V., priority 2004, dated 2009):

Legend:
[1] = biological target: human cannabinoid CB1 receptor (Homo sapiens, UniProt P21554); test: In vitro affinity for cannabinoid-CB1 receptors ([3H]CP-55,940 radioligand binding, CHO cell membranes); settings: [3H]CP-55,940 as radioligand, read-out: In vitro affinity pKi value (converted)
Experimental: In vitro Affinity for Cannabinoid-CB1 Receptors
The affinity of the compounds of the invention for cannabinoid CB1 receptors can be determined using membrane preparations of Chinese hamster ovary (CHO) cells in which the human cannabinoid CB1 receptor is stably transfected in conjunction with [^3H]CP-55,940 as radioligand. After incubation of a freshly prepared cell membrane preparation with the [^3H]-ligand, with or without addition of compounds of the invention, separation of bound and free ligand is performed by filtration over glassfiber filters. Radioactivity on the filter is measured by liquid scintillation counting.

human CB1 receptor = human CB1 receptor (Homo sapiens, UniProt P21554); test: In vitro cannabinoid-CB1 receptor antagonism (WIN 55,212-2-induced [3H]-arachidonic acid release in CHO cells); assay type: cell-based; settings: antagonism of WIN 55,212-2-induced [3H]-arachidonic acid release, read-out: In vitro antagonism pA2-value (arachidonic acid release) (converted)
Experimental: In vitro Cannabinoid-CB1 Receptor Antagonism
In vitro CB1 receptor antagonism can be assessed with the human CB1 receptor cloned in Chinese hamster ovary (CHO) cells. CHO cells are grown in a Dulbecco's Modified Eagle's medium (DMEM) culture medium, supplemented with 10% heat-inactivated fetal calf serum. Medium is aspirated and replaced by DMEM, without fetal calf serum, but containing [^3H]-arachidonic acid and incubated overnight in a cell culture stove (5% CO2/95% air; 37° C.; water-saturated atmosphere). During this period [^3H]-arachidonic acid is incorporated in membrane phospholipids. On the test day, medium is aspirated and cells are washed three times using 0.5 mL DMEM, containing 0.2% bovine serum albumin (BSA). Stimulation of the CB1 receptor by WIN 55,212-2 leads to activation of PLA2 followed by release of [^3H]-arachidonic acid into the medium. This WIN 55,212-2-induced release is concentration-dependently antagonized by CB1 receptor antagonists.

Sequence of human cannabinoid CB1 receptor (P21554 whole entry): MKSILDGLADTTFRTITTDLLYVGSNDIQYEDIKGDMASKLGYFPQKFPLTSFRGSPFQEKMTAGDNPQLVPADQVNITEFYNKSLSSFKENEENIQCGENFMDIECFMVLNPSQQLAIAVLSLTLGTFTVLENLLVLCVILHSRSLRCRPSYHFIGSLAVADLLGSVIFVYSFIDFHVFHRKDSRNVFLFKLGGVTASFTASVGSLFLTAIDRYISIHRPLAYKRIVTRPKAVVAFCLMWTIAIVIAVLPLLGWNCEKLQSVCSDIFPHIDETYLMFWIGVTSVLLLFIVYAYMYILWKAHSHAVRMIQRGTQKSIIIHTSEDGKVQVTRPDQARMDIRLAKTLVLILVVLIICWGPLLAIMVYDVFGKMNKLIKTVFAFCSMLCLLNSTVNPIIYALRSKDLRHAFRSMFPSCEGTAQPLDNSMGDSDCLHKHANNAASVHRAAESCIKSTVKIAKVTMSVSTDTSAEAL
Sequence of human CB1 receptor (P21554 whole entry): as above

Ki [1] [nM] | melting point [°C] | Kb (human CB1 receptor) [nM] | SMILES
100 | – | – | O=C(NC1CC2CCC1C2)C1CN(c2ccc(Cl)cc2)C(c2ccc(Cl)cc2Cl)=N1 (single isomer, unassigned) [Compound 2, 1-(4-chlorophenyl)-2-(2,4-dichlorophenyl)-N-(exo-2-bicyclo[2.2.1]heptyl)-4,5-dihydro-1H-imidazole-4-carboxamide]
158 | 146 to 147 | – | CN(C)S(=O)(=O)/N=C(\N)C1CN(c2ccc(Cl)cc2)C(c2ccc(Cl)cc2Cl)=N1 (centres unmarked) [Compound 8, 1-(4-chlorophenyl)-2-(2,4-dichlorophenyl)-N-(dimethylaminosul-fonyl)-4,5-dihydro-1H-imidazole-4-carboxamidine]
20 | – | – | O=C(NC1CC2CCC1C2)C1CN(c2ccc(Cl)cc2)C(c2ccc(Cl)cc2Cl)=N1 (single isomer, unassigned) [Compound 1, 1-(4-chlorophenyl)-2-(2,4-dichlorophenyl)-N-(exo-2-bicyclo[2.2.1]heptyl)-4,5-dihydro-1H-imidazole-4-carboxamide]
– | 172 to 175 | – | N/C(=N\S(=O)(=O)c1ccc(F)cc1)C1CN(c2ccc(Cl)cc2)C(c2ccc(Cl)cc2Cl)=N1 (centres unmarked)
– | 113 to 116 | – | O=C(NN1CCCCC1)C1CN(c2ccc(Cl)cc2)C(c2ccc(Cl)cc2Cl)=N1 (centres unmarked) [Compound 3, 1-(4-chlorophenyl)-2-(2,4-dichlorophenyl)-N-(piperidin-1-yl)-4,5-dihydro-1H-imidazole-4-carboxamide]
– | 165 to 166 | – | N/C(=N\S(=O)(=O)c1ccc(Cl)cc1)C1CN(c2ccc(Cl)cc2)C(c2ccc(Cl)cc2Cl)=N1 (centres unmarked) [Compound 5, 1-(4-chlorophenyl)-2-(2,4-dichlorophenyl)-N-[(4-chlorophenyl)sulfonyl]-4,5-dihydro-1H-imidazole-4-carboxamidine]
100 | 127 to 129 | 20 | O=C(NC1CCCCC1)C1CN(c2ccc(Cl)cc2)C(c2ccc(Cl)cc2Cl)=N1 (centres unmarked) [Compound 4, 1-(4-Chlorophenyl)-2-(2,4-dichlorophenyl)-N-cyclohexyl4,5-dihydro-1H-imidazole-4-carboxamide]
– | 136 to 139 | – | CN(C)S(=O)(=O)/N=C(\N)C1CN(c2ccccc2)C(c2ccc(Cl)cc2)=N1 (centres unmarked) [Compound 7, 2-(4-Chlorophenyl)-N-(dimethylaminosulfonyl)-1-phenyl-4,5-dihydro-1H-imidazole-4-carboxamidine]
